Results from patent US20260092061A1, “COMPOUNDS FOR TARGETED PROTEIN DEGRADATION” (Amphista Therapeutics Limited, priority 2022, published 2026).

Target: T1, BRD9 (Homo sapiens, UniProt Q9H8M2)
T1 sequence (Q9H8M2 1-597): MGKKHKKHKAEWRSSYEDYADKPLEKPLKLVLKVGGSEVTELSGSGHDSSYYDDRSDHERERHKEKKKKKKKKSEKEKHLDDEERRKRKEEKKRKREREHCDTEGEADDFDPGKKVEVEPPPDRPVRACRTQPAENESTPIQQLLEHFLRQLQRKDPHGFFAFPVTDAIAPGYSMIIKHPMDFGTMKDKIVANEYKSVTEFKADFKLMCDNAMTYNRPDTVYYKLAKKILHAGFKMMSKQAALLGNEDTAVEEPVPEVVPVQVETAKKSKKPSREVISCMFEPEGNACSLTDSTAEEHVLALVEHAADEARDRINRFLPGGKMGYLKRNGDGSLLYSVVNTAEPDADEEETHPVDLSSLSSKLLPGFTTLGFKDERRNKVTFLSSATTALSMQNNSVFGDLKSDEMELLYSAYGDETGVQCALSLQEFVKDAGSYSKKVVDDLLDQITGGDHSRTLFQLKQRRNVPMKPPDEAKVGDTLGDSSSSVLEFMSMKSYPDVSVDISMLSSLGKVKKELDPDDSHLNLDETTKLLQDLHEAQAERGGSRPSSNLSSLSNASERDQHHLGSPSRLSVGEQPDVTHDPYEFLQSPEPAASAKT
Assay: Degradation of BRD9 (IF), immunofluorescence in MV4-11 cells, 24 hours (Assay Protocol 2)
Type: cell-based
Set-up: A suspension of MV4-11 cells (ATCC CRL-9591) was prepared; host or cells: MV4-11
Conditions: BRD9 degradation; for DC50: Assay protocol 2, read-out: DC50; for Dmax: MV4-11, Assay protocol 2, read-out: Dmax
Procedure, shortened: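 % BRD9 remaining, scaled between DMSO (high) and 100 nM CFT-8634 (low) control wells, derives from mean Alexa 647 contrast in central nuclei by high-content imaging. MV4-11 cells had 24 h compound exposure at 37° C. before PFA fixation, Triton permeabilisation and anti-BRD9 E4Q3F immunostaining.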

SMILES	DC50 [nM]	Dmax [%]
COc1cc(-c2cn(C)c(=O)c(C)c2C)cc(OC)c1CN1CCN(Cc2cccc3c2CCN(C(=O)/C(C#N)=C/C(C)(C)C)C3C(C)C)[C@@H](C)C1 (mixture of isomers) [Compound C14, (E/Z)-2-(5-(((S)-4-(2,6-dimethoxy-4-(1,4,5-trimethyl-6-oxo-1,6-dihydropyridin-3-yl)benzyl)-2-methylpiperazin-1-yl)methyl)-1-isopropyl-1,2,3,4-tetrahydroisoquinoline-2-carbonyl)-4,4-dimethylpent-2-enenitrile]	25 to 1000	> 75
CCC1c2cccc(CN3CCN(Cc4c(OC)cc(-c5cn(C)c(=O)c(C)c5C)cc4OC)CC34CC4)c2CCN1C(=O)/C(C#N)=C/C(C)(C)C (mixture of isomers) [Compound C15, (E/Z)-2-(5-((7-(2,6-dimethoxy-4-(1,4,5-trimethyl-6-oxo-1,6-dihydropyridin-3-yl)benzyl)-4,7-diazaspiro[2.5]octan-4-yl)methyl)-1-ethyl-1,2,3,4-tetrahydroisoquinoline-2-carbonyl)-4,4-dimethylpent-2-enenitrile]	< 1.25	> 75
COc1cc(-c2cn(C)c(=O)c(C)c2C)cc(OC)c1CN1CCN(Cc2cccc3c2CCN(C(=O)/C(C#N)=C/C(C)(C)C)C3C2CC2)C2(CC2)C1 (mixture of isomers) [Compound C16, (E/Z)-2-(1-cyclopropyl-5-((7-(2,6-dimethoxy-4-(1,4,5-trimethyl-6-oxo-1,6-dihydropyridin-3-yl)benzyl)-4,7-diazaspiro[2.5]octan-4-yl)methyl)-1,2,3,4-tetrahydroisoquinoline-2-carbonyl)-4,4-dimethylpent-2-enenitrile]	< 1.25	> 75
CCCC1c2cccc(CN3CCN(Cc4c(OC)cc(-c5cn(C)c(=O)c(C)c5C)cc4OC)CC34CC4)c2CCN1C(=O)/C(C#N)=C/C(C)(C)C (mixture of isomers) [Compound C17, (E/Z)-2-(5-((7-(2,6-dimethoxy-4-(1,4,5-trimethyl-6-oxo-1,6-dihydropyridin-3-yl)benzyl)-4,7-diazaspiro[2.5]octan-4-yl)methyl)-1-propyl-1,2,3,4-tetrahydroisoquinoline-2-carbonyl)-4,4-dimethylpent-2-enenitrile]	1.25 to 10	> 75
COCC1(OC)c2cccc(CN3CCN(Cc4c(OC)cc(-c5cn(C)c(=O)c(C)c5C)cc4OC)CC34CC4)c2CCN1C(=O)/C(C#N)=C/C(C)(C)C (mixture of isomers) [Compound C18, (E/Z)-2-(5-((7-(2,6-dimethoxy-4-(1,4,5-trimethyl-6-oxo-1,6-dihydropyridin-3-yl)benzyl)-4,7-diazaspiro[2.5]octan-4-yl)methyl)-1-methoxy-1-(methoxymethyl)-1,2,3,4-tetrahydroisoquinoline-2-carbonyl)-4,4-dimethylpent-2-enenitrile]	1.25 to 10	> 75
COc1cc(-c2cn(C)c(=O)c(C)c2C)cc(OC)c1CN1CCN(Cc2cccc3c2CCN(C(=O)/C(C#N)=C/c2cccc(Br)n2)C3C(C)C)CC1 (mixture of isomers) [Compound C21, (E/Z)-3-(6-bromopyridin-2-yl)-2-(5-((4-(2,6-dimethoxy-4-(1,4,5-trimethyl-6-oxo-1,6-dihydropyridin-3-yl)benzyl)piperazin-1-yl)methyl)-1-isopropyl-1,2,3,4-tetrahydroisoquinoline-2-carbonyl)acrylonitrile]	1.25 to 10	70 to 75
COc1cc(-c2cn(C)c(=O)c(C)c2C)cc(OC)c1CN1CCN(Cc2cccc3c2CCN(C(=O)/C(C#N)=C/C(C)C)C3C(C)C)CC1 (mixture of isomers) [Compound C22, (E/Z)-2-(5-((4-(2,6-dimethoxy-4-(1,4,5-trimethyl-6-oxo-1,6-dihydropyridin-3-yl)benzyl)piperazin-1-yl)methyl)-1-isopropyl-1,2,3,4-tetrahydroisoquinoline-2-carbonyl)-4-methylpent-2-enenitrile]	1.25 to 10	> 75
COc1cc(-c2cn(C)c(=O)c(C)c2C)cc(OC)c1CN1CCN(Cc2cccc3c2CCN(C(=O)/C(C#N)=C/C2(C)CCOCC2)C3C(C)C)C2(CC2)C1 (mixture of isomers) [Compound C23, (E/Z)-2-(5-((7-(2,6-dimethoxy-4-(1,4,5-trimethyl-6-oxo-1,6-dihydropyridin-3-yl)benzyl)-4,7-diazaspiro[2.5]octan-4-yl)methyl)-1-isopropyl-1,2,3,4-tetrahydroisoquinoline-2-carbonyl)-3-(4-methyltetrahydro-2H-pyran-4-yl)acrylonitrile]	< 1.25	> 75
COc1cc(-c2cn(C)c(=O)c(C)c2C)cc(OC)c1CN1CCN(Cc2cccc3c2CCN(C(=O)/C(C#N)=C/C(C)(C)CF)C3C(C)C)C2(CC2)C1 (mixture of isomers) [Compound C24, (E/Z)-2-(5-((7-(2,6-dimethoxy-4-(1,4,5-trimethyl-6-oxo-1,6-dihydropyridin-3-yl)benzyl)-4,7-diazaspiro[2.5]octan-4-yl)methyl)-1-isopropyl-1,2,3,4-tetrahydroisoquinoline-2-carbonyl)-5-fluoro-4,4-dimethylpent-2-enenitrile]	< 1.25	> 75
COc1cc(-c2cn(C)c(=O)c(C)c2C)cc(OC)c1CN1CCN(Cc2cccc3c2CCN(C(=O)/C(C#N)=C/C(C)(C)CF)C3C(C)C)CC12CC2 (mixture of isomers) [Compound C25, (E/Z)-2-(5-((4-(2,6-dimethoxy-4-(1,4,5-trimethyl-6-oxo-1,6-dihydropyridin-3-yl)benzyl)-4,7-diazaspiro[2.5]octan-7-yl)methyl)-1-isopropyl-1,2,3,4-tetrahydroisoquinoline-2-carbonyl)-5-fluoro-4,4-dimethylpent-2-enenitrile]	1.25 to 10	> 75
COc1cc(-c2cn(C)c(=O)c(C)c2C)cc(OC)c1CN1CCN(Cc2cccc3c2CCN(C(=O)/C(C#N)=C/c2cccc(Br)n2)C3C)C2(CC2)C1 (mixture of isomers) [Compound C29]	1.25 to 10	70 to 75
COc1cc(-c2cn(C)c(=O)c(C)c2C)cc(OC)c1CN1CCN(Cc2cccc3c2CCN(C(=O)/C(C#N)=C/C(C)(C)F)[C@H]3C)C2(CC2)C1 (mixture of isomers) [Compound C30]	25 to 1000	40 to 70
COc1cc(-c2cn(C)c(=O)c(C)c2C)ccc1OC1CCN(Cc2cccc3c2CCN(C(=O)/C(C#N)=C/C(C)(C)C)C3C(C)C)CC1 (mixture of isomers) [Compound C32, (E/Z)-2-(1-isopropyl-5-((4-(2-methoxy-4-(1,4,5-trimethyl-6-oxo-1,6-dihydropyridin-3-yl)phenoxy)piperidin-1-yl)methyl)-1,2,3,4-tetrahydroisoquinoline-2-carbonyl)-4,4-dimethylpent-2-enenitrile]	25 to 1000	70 to 75
COc1cc(-c2cn(C)c(=O)c(C)c2C)cc(OC)c1CN1CCN(C(=O)c2cccc3c2CCN(C(=O)/C(C#N)=C/C(C)(C)C)C3C)C2(CC2)C1 (mixture of isomers) [Compound C43, (E/Z)-2-(5-(7-(2,6-dimethoxy-4-(1,4,5-trimethyl-6-oxo-1,6-dihydropyridin-3-yl)benzyl)-4,7-diazaspiro[2.5]octane-4-carbonyl)-1-methyl-1,2,3,4-tetrahydroisoquinoline-2-carbonyl)-4,4-dimethylpent-2-enenitrile]	25 to 1000	> 75
COc1cc(-c2cn(C)c(=O)c(C)c2C)cc(OC)c1CN1CCC2(CC1)CN(c1cccc3c1CCN(C(=O)/C(C#N)=C/C(C)(C)C)[C@@H]3C)C2 (mixture of isomers) [Compound C45, (E/Z)-2-(5-(7-(2,6-dimethoxy-4-(1,4,5-trimethyl-6-oxo-1,6-dihydropyridin-3-yl)benzyl)-2,7-diazaspiro[3.5]nonan-2-yl)-1-methyl-1,2,3,4-tetrahydroisoquinoline-2-carbonyl)-4,4-dimethylpent-2-enenitrile]	10 to 25	40 to 70
COc1cc(-c2cn(C)c(=O)c(C)c2C)cc(OC)c1CN1CCC2(CC1)CCN(c1cccc3c1CCN(C(=O)/C(C#N)=C/C(C)(C)CF)[C@@H]3C)C2 (mixture of isomers) [Compound C48, (E/Z)-2-(5-(8-(2,6-dimethoxy-4-(1,4,5-trimethyl-4-oxo-1,6-dihydropyridin-3-yl)benzyl)-2,8-diazaspiro[4.5]decan-2-yl)-1-methyl-1,2,3,4-tetrahydroisoquinoline-2-carbonyl)-5-fluoro-4,4-dimethylpent-2-enenitrile]	1.25 to 10	> 75
COc1cc(-c2cn(C)c(=O)c(C)c2C)cc(OC)c1CN1CCC(N(C)c2cccc3c2CCN(C(=O)/C(C#N)=C/C(C)(C)C)C3C)C(F)(F)C1 (mixture of isomers) [Compound C57]	25 to 1000	40 to 70
